# Measured values as given in patent US20220152117A1, “METHODS OF PROMOTING CELLULAR MATURATION WITH AMPK ACTIVATORS” (UNIVERSITY OF WASHINGTON, priority 2019, published 2022).
# Experiments:
# hPSC-CMs = assay: Electron microscopy and point counting of relative mitochondrial volume; type: cell-based, human; details: after AICAR treatment; control 0.068±0.006
# Procedure: Adherent cells in tissue culture dishes were fixed for transmission electron microscopy in half-strength Karnovsky's fixative (2.0% paraformaldehyde, 2.5% glutaraldehyde, 0.1M phosphate buffer, pH 7.4) overnight. The cells were then washed in 0.1M phosphate buffer two times (5 minutes each) and post-fixed in 1.0% OsO4 in 0.1M phosphate buffer. Cells were rinsed twice (5 minutes each) then dehydrated in […], 70% and 90% alcohol, 2 minutes each, then in 100% alcohol twice (5 minutes each). Cells were embedded in Polybed 812 Resin™ (Ted Pella®, Redding, Calif.) by first infiltrating with a mixture of 50% alcohol/50% polybed for 1 hour and then pure polybed for 3 hours. Beem capsules filled with fresh resin were inverted over areas of cells. Polymerization procedure was performed for 24 hours at 65° C. Removal of beem capsules was achieved by placing plates in boiling water then gently peeling the capsule containing the polymerized resin and cells away from the plastic plate. Sections for light and transmission electron microscopy were cut using a Reichert Ultracut E Microtome™. […] The relative mitochondrial volume was calculated by point counting, in which 20 horizontal and 20 perpendicular lines were drawn in the images and the crosspoints that overlapped with mitochondria was counted and then divided by the total points.
# control cardiomyocytes = assay: TUNEL cell viability assay, control cardiomyocytes from normal iPSCs; type: cell-based, human; details: two weeks treatment, TUNEL with α-actinin co-stain
# Procedure: The normal and mutant Plakophilin 2 (PKP2) cells were generated as described previously^37. Induced pluripotent cells were cultured with E8 medium in Matrigel® coated plates. Cardiomyocytes were obtained using a protocol based on Lian et al^38 that involves Wnt agonist CHIR 99021 in the early stages of differentiation followed by the Wnt antagonist IWP2 under monolayer condition. Before Day 7, cells were cultured in RPMI plus B27 without insulin while on Day 7 and afterwards, EB media (KO-DMEM with 2% FBS, 1 mM NEAAs, 1× GlutaMAX, 1 mM mercaptoethanol, and penicillin/streptomycin) was used. At 30 days of differentiation, beating EBs were treated with three factors (3F) (50 μg/ml insulin, 0.5 μM dexamethasone, and 0.25 mM IBMX) or five factors (5F) (3F plus PPAR-γ agonists 5 μM rosiglitazone and 200 μM indomethacin) media as described earlier or treated with 1 mM AICAR or AICAR plus rosiglitazone and indomethacin for two weeks. TUNEL staining with In Situ Cell Death Detection Kit TMR Red™ (Roche®) was used to assess cell viability after conducting different treatment. TUNEL staining was co-stained with anti-α-actinin antibody so that cardiomyocyte-specific apoptosis could be assessed.
compound,measurement,setting,value
"NC(=O)c1ncn([C@@H]2O[C@H](CO)[C@@H](O)[C@H]2O)c1N [AICAR, 5-amino-4-imidazolecarboxamide riboside-1-β-D-ribofuranoside]",mitochondrial volume fraction,hPSC-CMs,0.119±0.013
same,apoptosis in control cardiomyocytes,control cardiomyocytes,None of the treatment groups significantly leads to apoptosis
